Laboratory results: patent publication US8691813B2, “Indole and benzoxazine derivatives as modulators of metabotropic glutamate receptors” (Janssen Pharmaceuticals, Inc., priority 2008, dated 2014)

How the values were obtained:
human mGluR2 = target: T1, human mGluR2 (Homo sapiens, UniProt Q14416); assay: [35S]GTPγS binding assay (PAM assay) using membranes from CHO cells transfected with the human mGluR2 receptor; assay type: biochemical; conditions: in presence of glutamate at predetermined EC25 concentration, membranes containing human mGluR2, averages of duplicate values of 11-concentration response curves; for EC50: read-out: GTPγS -hR2 PAM pEC50 (converted)
T1 construct: expressed in transfected cells; host or cells: CHO cells (membrane preparation)
T1 sequence (Q14416 19-872): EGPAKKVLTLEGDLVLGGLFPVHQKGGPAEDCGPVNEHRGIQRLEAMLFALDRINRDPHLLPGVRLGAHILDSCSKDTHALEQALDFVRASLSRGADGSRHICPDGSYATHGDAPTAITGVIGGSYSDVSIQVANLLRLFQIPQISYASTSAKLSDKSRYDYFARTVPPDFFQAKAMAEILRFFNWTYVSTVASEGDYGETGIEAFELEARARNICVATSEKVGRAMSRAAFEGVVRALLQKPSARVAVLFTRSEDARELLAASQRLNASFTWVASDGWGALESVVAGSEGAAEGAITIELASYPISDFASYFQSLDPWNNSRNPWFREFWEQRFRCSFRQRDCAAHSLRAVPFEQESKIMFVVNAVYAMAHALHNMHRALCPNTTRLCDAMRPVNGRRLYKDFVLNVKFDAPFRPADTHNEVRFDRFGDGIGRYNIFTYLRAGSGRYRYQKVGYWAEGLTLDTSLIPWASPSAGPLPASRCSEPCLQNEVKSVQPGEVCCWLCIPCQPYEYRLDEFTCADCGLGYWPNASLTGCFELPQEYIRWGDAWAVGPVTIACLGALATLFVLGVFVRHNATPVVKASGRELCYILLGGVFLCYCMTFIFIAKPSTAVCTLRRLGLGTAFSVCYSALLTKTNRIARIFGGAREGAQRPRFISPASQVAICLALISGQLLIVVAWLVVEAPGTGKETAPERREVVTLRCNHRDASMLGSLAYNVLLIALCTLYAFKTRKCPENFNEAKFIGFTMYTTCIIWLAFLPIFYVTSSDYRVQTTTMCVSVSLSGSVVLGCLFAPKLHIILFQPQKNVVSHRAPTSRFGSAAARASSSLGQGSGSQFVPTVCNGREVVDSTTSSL
Experimental: The [^35S]GTPγS binding assay is a functional membrane-based assay used to study G-protein coupled receptor (GPCR) function whereby incorporation of a non-hydrolysable form of GTP, [^35S]GTPγS (guanosine 5′-triphosphate, labelled with […] ^35S), is measured.
CHO-cells were cultured to pre-confluence and stimulated with 5 mM butyrate for 24 hs, prior to washing in PBS (phosphate-buffered saline), and then collection by scraping in homogenisation buffer (50 mM Tris-HCl buffer, pH 7.4, 4° C.). Cell lysates were homogenized briefly (15 s) using an ultra-turrax homogenizer. The homogenate was centrifuged at 23 500×g for 10 min. and the supernatant discarded. The pellet was resuspended in 5 mM Tris-HCl, pH 7.4 and centrifuged again (30 000×g, 20 min., 4° C.). The final pellet was resuspended in 50 mM HEPES, pH 7.4 and stored at −80° C. in appropriate aliquots before use. Protein concentration was determined by the Bradford method (Bio-Rad, USA) with bovine serum albumin as standard.
Measurement of mGluR2 positive allosteric modulatory activity of test compounds in membranes containing human mGluR2 was performed using frozen membranes that were thawed and briefly homogenised prior to pre-incubation in 96-well microplates (15 μg/assay well, 30 minutes, 30° C.) in assay buffer (50 mM HEPES pH 7.4, 100 mM NaCl, 3 mM MgCl2, 50 μM GDP, 10 μg/ml saponin,) with increasing concentrations of positive allosteric modulator (from 0.3 nM to 50 μM) and either a minimal pre-determined concentration of glutamate (PAM assay), or no added glutamate. […] After addition of [^35S]GTPγS (0.1 nM, f.c.) to achieve a total reaction volume of 200 μl, microplates were shaken briefly and further incubated to allow [^35S]GTPγS incorporation on activation (30 minutes, 30° C.). The reaction was stopped by rapid vacuum filtration over glass-fibre filter plates (Unifilter 96-well GF/B filter plates, Perkin-Elmer, Downers Grove, USA) microplate using a 96-well plate cell harvester (Filtermate, Perkin-Elmer, USA), and then by washing three times with 300 μl of ice-cold wash buffer (Na2PO4.2H2O 10 mM, NaH2PO4.H2O 10 mM, pH=7.4). Filters were then air-dried, and 40 μl of liquid scintillation cocktail (Microscint-O) was added to each well, and membrane-bound [^35S]GTPγS was measured in a 96-well scintillation plate reader (Top-Count, Perkin-Elmer, USA). Non-specific [^35S]GTPγS binding is determined in the presence of cold 10 μM GTP. Each curve was performed at least once using duplicate sample per data point and at 11 concentrations.
The concentration-response curves of representative compounds of the present invention in the presence of added EC25 of mGluR2 agonist glutamate to determine positive allosteric modulation (PAM), were generated using the Prism GraphPad software (Graph Pad Inc, San Diego, USA).

`OC1CCC(N2CCOc3cc(-c4ccn5c(CC(F)(F)F)cnc5c4Cl)ccc32)CC1` (mixture of isomers) [Compound 5, 4-[7-[8-Chloro-3-(2,2,2-trifluoro-ethyl)-imidazo[1,2-a]pyridin-7-yl]-2,3-dihydro-4H-1,4-benzoxazin-4-yl]-cyclohexanol] gave an EC50 (human mGluR2) of 112 nM.
For `N#Cc1c(-c2cc(Cl)c3c(ccn3C3CCOCC3)c2)ccn2c(CC(F)(F)F)cnc12` [Compound 1, 7-[7-Chloro-1-(tetrahydro-pyran-4-yl)-1H-indol-5-yl]-3-(2,2,2-trifluoroethyl) imidazo[1,2-a]pyridine-8-carbonitrile], the EC50 (human mGluR2) was 380 nM.
In the case of `FC(F)(F)Cc1cnc2c(Cl)c(-c3cc(Cl)c4[nH]ccc4c3)ccn12` [Compound 2, 8-Chloro-7-(7-chloro-M-indol-5-yl)-3-(2,2,2-trifluoroethyl)-imidazo[1,2-a]-pyridine], the “GTPγS -hR2 PAM pEC50” value (human mGluR2) is reported as 7.07 and the melting point is reported as 182.8 °C.
With `O[C@H]1CC[C@H](n2ccc3cc(-c4ccn5c(CC(F)(F)F)cnc5c4Cl)ccc32)CC1` [Compound 3] the EC50 (human mGluR2) was 166 nM and the melting point was 131.6 °C.
Compound `C[C@]1(O)CC[C@H](n2ccc3cc(-c4ccn5c(CC(F)(F)F)cnc5c4Cl)ccc32)CC1` [Compound 4, trans-4-[5-[8-Chloro-3-(2,2,2-trifluoroethyl)-imidazo[1,2-a]pyridin-7-yl]-1H-indol-1-yl-]-1-methyl-cyclohexanol] has an EC50 (human mGluR2) of 129 nM and a melting point of 262.2 °C.
With `N#Cc1c(-c2ccc3c(ccn3C3CCOCC3)c2)ccn2c(CC(F)(F)F)cnc12` [Compound 6] the melting point was 232.9 °C.
With `Cn1ccc2cc(-c3ccn4c(CC(F)(F)F)cnc4c3C#N)ccc21` [Compound 7] the “GTPγS -hR2 PAM pEC50” value (human mGluR2) was 6.64.
`CC(C)(O)Cn1ccc2cc(-c3ccn4c(CC(F)(F)F)cnc4c3C#N)ccc21` [Compound 9] gave an EC50 (human mGluR2) of 1070 nM.
In the case of `Cn1ccc2cc(-c3ccn4c(CC(F)(F)F)cnc4c3C#N)cc(Cl)c21` [Compound 10], the melting point is reported as 172 °C.
In the case of `N#Cc1c(-c2cc(Cl)c3c(ccn3CC3CC3)c2)ccn2c(CC(F)(F)F)cnc12` [Compound 11], the “GTPγS -hR2 PAM pEC50” value (human mGluR2) is reported as 6.96 and the melting point is reported as 175.3 °C.
`N#Cc1c(-c2ccc3c(c2)OCCN3CC2CC2)ccn2c(CC(F)(F)F)cnc12` [Compound 12] showed an EC50 (human mGluR2) of 117 nM.
`N#Cc1c(-c2ccc3c(ccn3CC3CC3)c2)ccn2c(CC(F)(F)F)cnc12` [Compound 13] gave a melting point of 117.9 °C.
`CC(C)OCCn1ccc2cc(-c3ccn4c(CC(F)(F)F)cnc4c3C#N)ccc21` [Compound 14] showed an EC50 (human mGluR2) of 813 nM.
Compound `CN1CCOc2cc(-c3ccn4c(CC(F)(F)F)cnc4c3C#N)ccc21` [Compound 15] has an EC50 (human mGluR2) of 575 nM.
In the case of `N#Cc1c(-c2ccc3c(ccn3[C@H]3CC[C@H](O)CC3)c2)ccn2c(CC(F)(F)F)cnc12` [Compound 16], the EC50 (human mGluR2) is reported as 245 nM.
With `FC(F)(F)Cc1cnc2c(Cl)c(-c3cc(Cl)c4c(ccn4CC4CC4)c3)ccn12` [Compound 18] the “GTPγS -hR2 PAM pEC50” value (human mGluR2) was 6.60 and the melting point was 151.3 °C.
In the case of `N#Cc1c(-c2ccc3c(c2)OCCN3[C@H]2CC[C@H](O)CC2)ccn2c(CC(F)(F)F)cnc12` [Compound 19], the EC50 (human mGluR2) is reported as 191 nM.
`C[C@]1(O)CC[C@H](n2ccc3cc(-c4ccn5c(CC(F)(F)F)cnc5c4C#N)ccc32)CC1` [Compound 21] showed an EC50 (human mGluR2) of 309 nM and a melting point of 138.6 °C.
Work on `C[C@]1(O)CC[C@@H](n2ccc3cc(-c4ccn5c(CC(F)(F)F)cnc5c4C#N)ccc32)CC1` [Compound 22] yielded an EC50 (human mGluR2) of 501 nM and a melting point of 171.1 °C.
In the case of `FC(F)(F)Cc1cnc2c(Cl)c(-c3ccc4c(ccn4-c4ccccn4)c3)ccn12` [Compound 24], the EC50 (human mGluR2) is reported as 468 nM.
In the case of `FC(F)(F)Cc1cnc2c(Cl)c(-c3ccc4c(ccn4-c4ncccn4)c3)ccn12` [Compound 25, 8-Chloro-7-(1-pyrimidin-2-yl-1H-indol-5-yl)-3-(2,2,2-trifluoro-ethyl)-imidazo[1,2-a]pyridine], the EC50 (human mGluR2) is reported as 331 nM.
For `N#Cc1c(-c2ccc3c(ccn3Cc3ccncc3)c2)ccn2c(CC(F)(F)F)cnc12` [Compound 27], the EC50 (human mGluR2) was 117 nM.
Work on `N#Cc1c(-c2ccc3c(ccn3-c3ccccc3)c2)ccn2c(CC(F)(F)F)cnc12` [Compound 28] yielded an EC50 (human mGluR2) of 219 nM.
In the case of `N#Cc1c(-c2ccc3c(ccn3-c3ccc(F)cc3)c2)ccn2c(CC(F)(F)F)cnc12` [Compound 29], the EC50 (human mGluR2) is reported as 200 nM and the melting point is reported as 197.3 °C.
Work on `Cc1cc(Cn2ccc3cc(-c4ccn5c(CC(F)(F)F)cnc5c4C#N)ccc32)ccn1` [Compound 30] yielded an EC50 (human mGluR2) of 33.9 nM.
